Reference: US12102631B2, “Quinolylnitrones for the treatment and prevention of a cerebral stroke or ischaemia” (ISQUAEMIA BIOTECH, S.L., priority 2018, dated 2024)

Key:
soybean lipoxygenase LOX = biological target: T1, soybean lipoxygenase LOX (Glycine max, UniProt P08170); assay: Lipoxygenase (LOX) inhibition, UV-based enzyme assay; type: biochemical; details: for LOX (%): tested at 100 μM
T1 sequence (P08170 1-839): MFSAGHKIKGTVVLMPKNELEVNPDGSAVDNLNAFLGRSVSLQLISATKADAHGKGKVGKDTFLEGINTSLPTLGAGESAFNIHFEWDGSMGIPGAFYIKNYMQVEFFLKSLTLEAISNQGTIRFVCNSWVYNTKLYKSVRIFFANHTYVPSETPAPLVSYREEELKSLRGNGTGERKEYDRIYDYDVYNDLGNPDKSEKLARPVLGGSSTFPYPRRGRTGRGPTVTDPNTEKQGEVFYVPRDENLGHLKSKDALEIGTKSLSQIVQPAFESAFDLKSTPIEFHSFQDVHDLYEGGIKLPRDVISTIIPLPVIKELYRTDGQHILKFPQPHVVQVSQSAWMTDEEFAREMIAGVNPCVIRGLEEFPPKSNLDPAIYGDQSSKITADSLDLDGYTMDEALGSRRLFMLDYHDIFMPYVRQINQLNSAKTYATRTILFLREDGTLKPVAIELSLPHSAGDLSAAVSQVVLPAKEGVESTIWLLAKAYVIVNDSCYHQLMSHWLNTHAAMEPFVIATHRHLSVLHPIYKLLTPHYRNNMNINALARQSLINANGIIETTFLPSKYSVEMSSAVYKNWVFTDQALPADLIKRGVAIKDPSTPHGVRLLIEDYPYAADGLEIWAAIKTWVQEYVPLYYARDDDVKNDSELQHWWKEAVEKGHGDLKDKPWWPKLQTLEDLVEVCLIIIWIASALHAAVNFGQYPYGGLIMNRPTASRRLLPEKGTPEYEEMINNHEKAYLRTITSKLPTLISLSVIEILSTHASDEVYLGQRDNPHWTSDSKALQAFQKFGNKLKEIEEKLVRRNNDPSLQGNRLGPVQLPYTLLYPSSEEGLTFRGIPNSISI
Source text: 3.5. Lipoxygenase inhibition of QNs. […] A key strategy to prevent potential damage to cellular compounds such as DNA, proteins and lipids is to reduce the free radical load. […] LOX index, a novel predictive biochemical marker for coronary heart disease and stroke. […] Thus, LOX inhibitors may provide multifactorial protection against ischemic injury. […] Most of the LOX inhibitors are often antioxidants or free radical scavengers.

[1] = Quantitative nitrite assay for NO release (Griess); type: biochemical; details: 100 μM, L-cysteine, pH 7.4, 60 min 37° C.
Procedure: Quantitative nitrite assays for NO release. A solution of nitrone 23 (final concentration 100 μM) (20 μL), dissolved in DMSO, was added to 2 mL of 50 mM phosphate buffer (pH=7.4) containing the appropriate amount of thiol cofactor 1 mM (L-cysteine). After 60 min at 37° C., 1 mL of the reaction mixture was treated with 250 μL of the Griess reagent (4 g sulfanilamide, 0.2 g N-naphthyl-ethyldiamine dihydrochloride, 10 mL of 85% phosphoric acid in distilled water, final volume 100 mL). After the mixture stood for 10 min at rt, absorbance was recorded at 540 nm. Sodium nitroprusside (SNP) was used as standard reference compound (100 μM). The yield in nitrite (NO2^− release) for nitrone 23, as function of L-cysteine (mM concentration) is given in Table 1, expressed as % NO2^− (mol/mol).
QNs were tested in vitro for their ability to release NO by the action of a thiol co-factor. NO release with simultaneous production of cyanide occurs by action of reducing agents like thiols. L-cysteine was used as a co-factor in this in vitro biological test. […] The screened compounds (final concentration 100 μM) was tested for its ability to release NO when dissolved in a phosphate buffer containing L-cysteine (pH 7.4). Air was oxidizing the initially formed NO, transforming it to nitrites, which were detected by the Griess reaction. Virtually, no formation of NO2^− was detectable in the absence of L-cysteine for the nitrones tested.

| SMILES | IC50 (soybean lipoxygenase LOX) [µM] | NO2− (%) (mol/mol) [1] | LOX (%) (soybean lipoxygenase LOX) |
| --- | --- | --- | --- |
| CC(C)(C)/[N+]([O-])=C/c1ccc(S(=O)(=O)O)cc1S(=O)(=O)O [Compound 2, sodium (Z)-4-((tert-butyloxidoazanylidene)methyl)benzene-1,3-disulfonate, reference compound] | 57.5 | 1 % (mol/mol) | – |
| CC(C)(C)/[N+]([O-])=C/c1cc2ccccc2nc1Cl [Compound 18, (Z)—N-t-Butyl-1-(2-chloroquinolin-3-yl)methanimine oxide] | – | 7.5 % (mol/mol) | – |
| CC(C)(C)/[N+]([O-])=C/c1cc2ccccc2[nH]c1=O [Compound 19, (Z)—N-tert-Butyl-1-(2-oxo-1,2-dihydroquinolin-3-yl)methanimine oxide] | 36.5 | – | – |
| COc1ccc2nc(Cl)c(/C=[N+](/C)[O-])cc2c1 [Compound 22, (Z)-1-(2-Chloro-6-methoxyquinolin-3-yl)-N-methylmethanimine oxide] | – | 11 % (mol/mol) | 26 |
| COc1ccc2nc(Cl)c(/C=[N+](\[O-])C(C)(C)C)cc2c1 [Compound 23, (Z)—N-tert-Butyl-1-(2-chloro-6-methoxyquinolin-3-yl)methanimine oxide] | – | 3 % (mol/mol) | 29 |
| COc1ccc2nc(Cl)c(/C=[N+](\[O-])Cc3ccccc3)cc2c1 [Compound 24, (Z)—N-Benzyl-1-(2-chloro-6-methoxyquinolin-3-yl)methanimine oxide] | 100 | 12.5 % (mol/mol) | – |
| COc1ccc2nc(Cl)c(C=O)cc2c1 [Compound 32, 2-chloro-6-methoxyquinoline-3-carbaldehyde, reference compound] | 7.6 | 2.5 % (mol/mol) | – |
